One experiment concerns the target Cbl-b (Homo sapiens (Human), UniProt Q13191). Nature of the experiment: Cbl-b LCK Ub TR-FRET assay (Cbl-b Lck HTRF). Format: biochemical. The note with it: for IC50: Cbl-b LCK Ub TR-FRET, Example 121; for (fold-selectivity) Cbl-b and C-Cbl Selectivity: ratio C-cbl Lck HTRF IC50 / Cbl-b Lck HTRF IC50. A digest of the protocol: (§1)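 Signal is read once the detection mix has stood 20 min at ambient temperature. Curves are anchored by DMSO as maximum and by omission of LCK as minimum.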

A further experiment addresses c-Cbl (Homo sapiens (Human), UniProt P22681). Nature of the experiment: C-Cbl LCK Ub TR-FRET assay (C-cbl Lck HTRF). In kind it is biochemical. The gist of the method: as §1
(In general: Time-resolved FRET reads energy transfer from a long-lived donor to a nearby acceptor.)

The target in experiment [1] is Human Cbl-b (residues 40-426) (Homo sapiens (Human), UniProt Q13191). Nature of the experiment: Cbl-b SPR assay. Format: binding. To be noted: for Fold of selectivity: C-cbl SPR Kd vs Cbl-b SPR Kd; for Kd: SPR, 20° C. A digest of the protocol: (§2)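 Binding is measured by surface plasmon resonance against both isoforms, with double referencing and 1:1 kinetic fitting. Dissociation time is tuned to 4-5 half-lives.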
(SPR reads the build-up and loss of mass on a sensor chip optically.)

Another experiment has as its target c-Cbl (residues 47-435) (Homo sapiens (Human), UniProt P22681). Nature of the experiment: c-Cbl SPR assay. In kind it is binding. The note with it: 20° C. A digest of the protocol:
as §2

As usually defined, the IC50 is the midpoint of a concentration-inhibition curve. A higher IC50 goes with weaker potency in that assay. Usually Kd stands for the free concentration of one partner at which half of the binding sites on the other are occupied at equilibrium, for simple one-to-one binding. A higher Kd goes with a looser complex.

c-Cbl, sequence (P22681 47-435): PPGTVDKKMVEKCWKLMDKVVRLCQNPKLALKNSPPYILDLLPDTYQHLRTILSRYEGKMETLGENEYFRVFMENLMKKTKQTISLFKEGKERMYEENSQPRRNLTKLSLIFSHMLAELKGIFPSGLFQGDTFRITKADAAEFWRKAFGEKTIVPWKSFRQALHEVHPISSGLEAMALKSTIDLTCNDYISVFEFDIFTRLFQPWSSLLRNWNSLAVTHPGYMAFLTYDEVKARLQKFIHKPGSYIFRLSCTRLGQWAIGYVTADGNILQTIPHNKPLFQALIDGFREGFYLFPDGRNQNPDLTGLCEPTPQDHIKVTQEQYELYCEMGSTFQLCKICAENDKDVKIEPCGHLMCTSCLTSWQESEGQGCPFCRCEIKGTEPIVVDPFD
c-Cbl (residues 47-435), sequence (P22681 47-435): as above
Human Cbl-b (residues 40-426), sequence (Q13191 40-426): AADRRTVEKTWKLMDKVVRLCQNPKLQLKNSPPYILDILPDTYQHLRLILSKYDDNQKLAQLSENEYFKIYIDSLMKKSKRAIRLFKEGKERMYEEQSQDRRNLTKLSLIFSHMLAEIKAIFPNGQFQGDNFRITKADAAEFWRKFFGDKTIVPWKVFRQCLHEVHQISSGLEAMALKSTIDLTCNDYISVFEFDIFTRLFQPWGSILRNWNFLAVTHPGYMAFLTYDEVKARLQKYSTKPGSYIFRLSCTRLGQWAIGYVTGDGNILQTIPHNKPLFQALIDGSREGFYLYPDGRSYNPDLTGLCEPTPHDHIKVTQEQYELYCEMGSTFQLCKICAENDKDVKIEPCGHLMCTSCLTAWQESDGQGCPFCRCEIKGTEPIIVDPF
Cbl-b, sequence (Q13191 40-426): as above

Take `CO[C@H]1C[C@](c2cccc(N3Cc4c(cc(CNCC5(CO)CC6CC6C5)cc4C(F)(F)F)C3=O)c2)(c2nncn2C)C1` (stereo partly drawn) [Compound 509, 6-((((3-(hydroxymethyl)bicyclo[3.1.0]hexan-3-yl)methyl)amino)methyl)-2-(3-((1r,3r)-3-methoxy-1-(4-methyl-4H-1,2,4-triazol-3-yl)cyclobutyl)phenyl)-4-(trifluoromethyl)isoindolin-1-one]: at Cbl-b, inhibition was half-maximal at 16 nM (IC50); the “(fold-selectivity) Cbl-b and C-Cbl Selectivity” value is reported as 4.7x. The same compound came in with an IC50 at c-Cbl of 75 nM. In experiment [1], this compound showed a Fold of selectivity of 13× and a Kd of 6 nM. The Kd at c-Cbl (residues 47-435) came out at 75 nM.

As to `CO[C@H]1C[C@](c2cccc(N3Cc4c(cc(CNCC5CC56CC6(F)F)cc4C(F)(F)F)C3=O)c2)(c2nncn2C)C1` (stereo partly drawn) [Compound 510], on Cbl-b, half-maximal inhibition (IC50) was put at 12 nM; the “(fold-selectivity) Cbl-b and C-Cbl Selectivity” value was 4.2x. Further, on c-Cbl, the IC50 turned out to be 51 nM. Also, in experiment [1], the Fold of selectivity is 18× and the Kd was 3.4 nM. This compound also returned a Kd at c-Cbl (residues 47-435) of 60 nM.

With `CCCNCc1cc2c(c(C(F)(F)F)c1)CN(c1cccc([C@]3(c4nncn4C)C[C@H](OC)C3)c1)C2=O` [Compound 511, 2-(3-((1r,3r)-3-methoxy-1-(4-methyl-4H-1,2,4-triazol-3-yl)cyclobutyl)phenyl)-6-((propylamino)methyl)-4-(trifluoromethyl)isoindolin-1-one], on Cbl-b, the IC50 amounted to 12 nM; the “(fold-selectivity) Cbl-b and C-Cbl Selectivity” value is 5.0x. At c-Cbl, the IC50 amounted to 61 nM. For the same compound, in experiment [1], the Fold of selectivity was 13× and binding was characterised by a dissociation constant (Kd) of 5 nM. Moreover, the Kd at c-Cbl (residues 47-435) is 65 nM.

For the origin of these results see patent US12187709B2 (Genentech, Inc., priority 2021, dated 2025).
